Where “and” joins values, the source holds several entries; their conditions need not be identical. Equal values may be shown once. Where a SMILES comes first, the peptide text is derived from it.
Columns and labels:
[1] = system: HaCat cell line; test: In vitro HaCat cytotoxicity (MTT); type: cell-based, human; settings: 21 h exposure, OD570, relative to untreated control
Protocol: The HaCat cell line (Cellonex, South Africa) was cultured in Dulbecco’s Modified Eagle Medium (DMEM) supplemented with 10% heat-inactivated fetal calf serum (FCS) and 1% antibiotic-antimycotic (Abs) and maintained at 5–10% CO2, 37 °C, 95% humidity. For cytotoxicity screening, 5.56 × 10^4 cells/mL were plated in a 96-well plate. After 24 h incubation, the cells are initially exposed to each peptide at a concentration of 256 μg/mL or 0.1% Triton-X-100 as the control for 21 h. If cytotoxicity was observed, at a level of significance of p < 0.0001 compared with the untreated control after 21 h, a dose-response assay was undertaken. Cell viability was determined by adding 10% 3-(4,5-dimethyl-2-thiazolyl)-2,5-diphenyl-2H-tetrazolium bromide (MTT) (1 mg/mL), to each well and after a further 3 h incubation the media was discarded, and the formazan crystals dissolved by adding 25% DMSO in ethanol. The absorbance was measured at OD570 by using the FLUOstar Omega multidetection microplate reader (BMG Labtech). Percentage cell viability was calculated relative to the untreated control. The LC50 was defined as the concentration of AMP treatment that results in 50% lethality of HaCat cells and was determined from the dose-response curves.

[2] = system: E. coli LEC001; test: microbe, parasite or virus in culture; type: cell-based, Escherichia coli
How it was run: (§1)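 Peptides 128→2 μg/mL, 2-fold series; inoculum ~5 × 10^5 CFU/mL from overnight culture (OD600 0.01, mixed 1:1). MHB non-cation-adjusted for bacteria, RPMI 1640 + 2% glucose for fungi. 37 °C, 20 h, OD600. MIC50/MIC90 at 50%/90% inhibition; n ≥ 3.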

[3] = system: E. coli NCTC 12923; test: microbe, parasite or virus in culture; type: cell-based, Escherichia coli
How it was run: as §1

[4] = system: A. baumannii ATCC 17978; test: microbe, parasite or virus in culture; type: cell-based, Acinetobacter baumannii
How it was run: as §1

[5] = system: K. pneumoniae M6; test: microbe, parasite or virus in culture; type: cell-based, Klebsiella pneumoniae
How it was run: as §1

[6] = system: S. aureus (MSSA) ATCC 9144; test: microbe, parasite or virus in culture; type: cell-based, Staphylococcus aureus
How it was run: as §1

[7] = system: C. auris TDG 1912; test: microbe, parasite or virus in culture; type: cell-based, Candida auris
How it was run: as §1

[8] = system: C. albicans NCPF 3281; test: microbe, parasite or virus in culture; type: cell-based
How it was run: as §1

[9] = system: C. glabrata NCPF 8018; test: microbe, parasite or virus in culture; type: cell-based
How it was run: as §1

[10] = system: C. krusei NCPF 3876; test: microbe, parasite or virus in culture; type: cell-based
How it was run: as §1

[11] = system: C. parapsilosis NCPF 3209; test: microbe, parasite or virus in culture; type: cell-based
How it was run: as §1

[12] = system: C. tropicalis NCPF 8760; test: microbe, parasite or virus in culture; type: cell-based
How it was run: as §1

[13] = system: human erythrocytes; test: In vitro hemolytic activity; type: cell-based; settings: 1 h
Protocol: Potential erythrocyte hemolysis was tested by incubating serial dilutions of the AMPs in PBS with freshly collected erythrocytes at a ratio of 1:1 in 96-well polypropylene V-shape plates for 1 h at 37 °C. Control wells were treated with 0.1% Triton-X-100 to ensure complete lysis or PBS-only to represent no lysis. The erythrocytes were collected by centrifugation and the OD550 of the supernatant was measured using a plate reader. The percentage hemolysis was calculated as [drawing 1] 1 where Apeptide is the absorbance value of erythrocytes exposed to a known peptide concentration, Agrowth control is the absorbance of erythrocytes exposed to 0.1% Triton-X-100 and Ablank is the absorbance of erythrocytes exposed to the PBS. The concentrations at which a peptide caused 10% (HC10) and 50% (HC50) hemolysis was determined from the dose response curves.

[14] = system: P. aeruginosa NCTC 13437; test: microbe, parasite or virus in culture; type: cell-based, Pseudomonas aeruginosa
How it was run: as §1

[15] = system: A. baumannii AYE; test: microbe, parasite or virus in culture; type: cell-based, Acinetobacter baumannii
How it was run: as §1

[16] = system: K. pneumoniae NCTC 13368; test: microbe, parasite or virus in culture; type: cell-based, Klebsiella pneumoniae
How it was run: as §1

[17] = system: S. aureus (MRSA) NCTC 13616; test: microbe, parasite or virus in culture; type: cell-based, Staphylococcus aureus
How it was run: as §1

[18] = system: S. aureus (MRSA) USA300; test: microbe, parasite or virus in culture; type: cell-based, Staphylococcus aureus
How it was run: as §1

[19] = system: P. aeruginosa PAO1; test: microbe, parasite or virus in culture; type: cell-based, Pseudomonas aeruginosa; settings: P. aeruginosa PAO1 (S); shown in µM
How it was run: as §1

[20] = system: S. aureus (MRSA) 1199B; test: microbe, parasite or virus in culture; type: cell-based, Staphylococcus aureus; settings: S. aureus (MRSA) 1199B (R); shown in µM
How it was run: as §1

[21] = human erythrocytes in PBS, 37 °C, OD550, from dose response curves
[22] = C. albicans NCPF 3281, shown in µM
[23] = C. glabrata NCPF 8018, shown in µM
[24] = C. krusei NCPF 3876, shown in µM
[25] = C. parapsilosis NCPF 3209, shown in µM
[26] = C. tropicalis NCPF 8760, shown in µM

## CC[C@H](C)[C@H](NC(=O)[C@H](C)NC(=O)[C@H](Cc1c[nH]cn1)NC(=O)[C@@H]1CCCN1C(=O)[C@@H](NC(=O)[C@H](CC(C)C)NC(=O)[C@H](CO)NC(=O)[C@H](Cc1ccccc1)NC(=O)[C@H](CC(C)C)NC(=O)[C@@H](N)Cc1ccccc1)[C@@H](C)CC)C(=O)NCC(=O)NCC(=O)N[C@@H](CC(C)C)C(=O)N[C@H](C(=O)N[C@@H](CO)C(=O)N[C@@H](C)C(=O)N[C@@H](Cc1ccccc1)C(=O)N[C@@H](CCCCN)C(=O)O)[C@@H](C)CC [AamAP1]
[1]
  % HaCat cell death at initial screening (256μg/mL) ± SD: 44.3 ±20.2%

## CSCC[C@H](NC(=O)[C@H](CCSC)NC(=O)[C@H](CCCCN)NC(=O)CNC(=O)[C@@H](NC(=O)[C@@H](NC(=O)[C@H](CCCCN)NC(=O)[C@H](CC(C)C)NC(=O)CNC(=O)[C@H](Cc1ccccc1)NC(=O)[C@H](CCCCN)NC(=O)[C@H](Cc1ccccc1)NC(=O)[C@H](C)NC(=O)[C@H](CCCCN)NC(=O)CNC(=O)[C@H](CC(C)C)NC(=O)[C@H](CC(C)C)NC(=O)[C@H](CO)NC(=O)CNC(=O)[C@H](CC(C)C)NC(=O)CN)[C@@H](C)O)C(C)C)C(=O)NCC(=O)NCC(=O)N[C@@H](C)C(=O)N1CCC[C@H]1C(=O)N[C@@H](CCCNC(=N)N)C(=O)N[C@@H](CCC(=O)O)C(=O)N[C@@H](CCC(N)=O)C(=O)O [CPF-MW1] (H-GLGSLLGKAFKFGLKTVGKMMGGAPREQ-OH)
[2]; LEC001, 20 h
  Modal MIC: 2.7 µM
[3]; NCTC 12923, 20 h
  Modal MIC: 2.7 µM
[4]; ATCC 17978, 20 h
  Modal MIC: 1.4 µM
[5]; M6, 20 h
  Modal MIC: 5.4 µM
[6]; ATCC 9144, 20 h
  Modal MIC: 1.4 µM
[7]; TDG 1912, 20 h
  Modal MIC50: > 43.1 µM
  Modal MIC90: > 43.1 µM
[8]; NCPF 3281, 20 h
  Modal MIC50: > 43.1 µM
  Modal MIC90: > 43.1 µM
[9]; NCPF 8018, 20 h
  Modal MIC50: > 43.1 µM
  Modal MIC90: > 43.1 µM
[10]; NCPF 3876, 20 h
  Modal MIC50: 10.8 µM
  Modal MIC90: 10.8 µM
[11]; NCPF 3209, 20 h
  Modal MIC50: > 43.1 µM
  Modal MIC90: > 43.1 µM
[12]; NCPF 8760, 20 h
  Modal MIC50: 21.6 µM
  Modal MIC90: 21.6 µM
[13]; [21]
  HC10 (concentration causing 10% hemolysis): 214 µg/mL
[13]; red cells of human, 256 μg/mL
  % hemolysis: more than 10%

## CC[C@H](C)[C@H](NC(=O)[C@H](CCCCN)NC(=O)[C@H](CC(C)C)NC(=O)[C@H](C)NC(=O)[C@H](C)NC(=O)[C@H](CCCCN)NC(=O)[C@H](CC(C)C)NC(=O)[C@H](C)NC(=O)[C@H](CCCCN)NC(=O)CNC(=O)[C@H](CC(C)C)NC(=O)[C@H](Cc1ccccc1)NC(=O)[C@H](CO)NC(=O)CNC(=O)[C@H](Cc1ccccc1)NC(=O)CN)C(=O)NCC(=O)N[C@@H](C)C(=O)N[C@@H](CC(N)=O)C(=O)N[C@H](C(=O)N[C@@H](CC(C)C)C(=O)NCC(=O)NCC(=O)N[C@@H](C)C(=O)N1CCC[C@H]1C(=O)N[C@@H](CCC(N)=O)C(=O)N[C@@H](CCC(N)=O)C(=O)O)C(C)C [CPF-P3] (H-GFGSFLGKALKAALKIGANVLGGAPQQ-OH)
[2]; LEC001, 20 h
  Modal MIC: 2.9 µM
[3]; NCTC 12923, 20 h
  Modal MIC: 2.9 µM
[14]; NCTC 13437, 20 h
  Modal MIC: 23.5 µM
[4]; ATCC 17978, 20 h
  Modal MIC: 1.5 µM
[15]; AYE, 20 h
  Modal MIC: 2.9 µM
[5]; M6, 20 h
  Modal MIC: 11.8 µM
[16]; NCTC 13368, 20 h
  Modal MIC: 11.8 µM
[17]; NCTC 13616, 20 h
  Modal MIC: 1.5 µM
[18]; USA300, 20 h
  Modal MIC: 2.9 µM
[6]; ATCC 9144, 20 h
  Modal MIC: 1.5 µM
[7]; TDG 1912, 20 h
  Modal MIC50: > 47 µM
  Modal MIC90: > 47 µM
[8]; NCPF 3281, 20 h
  Modal MIC50: > 47 µM
  Modal MIC90: > 47 µM
[9]; NCPF 8018, 20 h
  Modal MIC50: > 47 µM
  Modal MIC90: > 47 µM
[10]; NCPF 3876, 20 h
  Modal MIC50: 23.5 µM
  Modal MIC90: 23.5 µM
[11]; NCPF 3209, 20 h
  Modal MIC50: > 47 µM
  Modal MIC90: > 47 µM
[12]; NCPF 8760, 20 h
  Modal MIC50: 2.9 µM
  Modal MIC90: 5.8 µM
[1]
  % HaCat cell death at initial screening (256μg/mL) ± SD: 39.9 ±12.3% and 39.9%

## CC[C@H](C)[C@H](NC(=O)[C@H](Cc1c[nH]c2ccccc12)NC(=O)[C@H](CC(=O)O)NC(=O)[C@H](Cc1c[nH]c2ccccc12)NC(=O)[C@@H](NC(=O)[C@H](CCCCN)NC(=O)CN)C(C)C)C(=O)N[C@@H](CCCCN)C(=O)N[C@@H](CO)C(=O)N[C@H](C(=O)N[C@@H](C)C(=O)N[C@@H](CCCCN)C(=O)N[C@@H](CCCCN)C(=O)N[C@@H](CC(C)C)C(=O)N[C@@H](Cc1c[nH]c2ccccc12)C(=O)N[C@@H](CC(N)=O)C(N)=O)[C@@H](C)O [Opis16a] (H-GKVWDWIKSTAKKLWN-NH2)
[2]; E. coli LEC001 (R), shown in µM
  Modal MIC: 2 µM
[3]; E. coli NCTC 12923 (S), shown in µM
  Modal MIC: 2 µM
[14]; P. aeruginosa NCTC 13437 (R), shown in µM
  Modal MIC: 16.2 µM
[19]
  Modal MIC: 64.7 µM
[4]; A. baumannii ATCC 17978 (S), shown in µM
  Modal MIC: 1 µM
[15]; A. baumannii AYE (R), shown in µM
  Modal MIC: 1 µM
[5]; K. pneumoniae M6 (S), shown in µM
  Modal MIC: 4 µM
[16]; K. pneumoniae NCTC 13368 (R), shown in µM
  Modal MIC: 8.1 µM
[20]
  Modal MIC: 2 µM
[17]; S. aureus (MRSA) NCTC 13616 (R), shown in µM
  Modal MIC: 2 µM
[18]; S. aureus (MRSA) USA300 (R), shown in µM
  Modal MIC: 4 µM
[6]; S. aureus (MSSA) ATCC 9144 (S), shown in µM
  Modal MIC: 1 µM
[7]; C. auris TDG 1912, 50% growth inhibition, RPMI 1640 + 2% glucose, 37 °C, 20 h, OD600
  Modal MIC50: > 128 µg/mL
[7]; C. auris TDG 1912, 90% growth inhibition, RPMI 1640 + 2% glucose, 37 °C, 20 h, OD600
  Modal MIC90: > 128 µg/mL
[7]; C. auris TDG 1912, shown in µM
  Modal MIC50: > 64.7 µM
  Modal MIC90: > 64.7 µM
[8]; [22]
  Modal MIC50: 32.4 µM
  Modal MIC90: 64.7 µM
[9]; [23]
  Modal MIC50: 64.7 µM
  Modal MIC90: 64.7 µM
[10]; [24]
  Modal MIC50: 16.2 µM
  Modal MIC90: 16.2 µM
[11]; [25]
  Modal MIC50: 32.4 µM
  Modal MIC90: 64.7 µM
[12]; [26]
  Modal MIC50: 4 µM
  Modal MIC90: 4 µM
[13]; [21]
  HC10 (concentration causing 10% hemolysis): 155 µg/mL
  HC50 (concentration causing 50% hemolysis): > 256 µg/mL
